In patent US20230322761A1, “DEGRADATION OF BRUTON'S TYROSINE KINASE (BTK) BY CONJUGATION OF BTK INHIBITORS WITH E3 LIGASE LIGAND AND METHODS OF USE” (BEIGENE, LTD., priority 2020, published 2023):

Molecular target: T1, BTK (Homo sapiens, UniProt Q06187)
T1 construct: endogenous in cells; host or cells: TMD-8 cells
Assay: BTK degradation in TMD-8 cells, HTRF assay after 6 h treatment
Assay type: cell-based
Conditions: for DC50: IC50 (DC50) of BTK degradation; for Dmax: TMD8, maximum percentage of inhibition (degradation)
Experimental: TMD-8 cells are treated with compounds diluted in 0.2% DMSO, dilution is done according to the following protocol: (1) make 500× stock solution in DMSO from 1 mM by 6-fold dilution, total 8 doses were included; (2) make 2× solution in cell culture medium by transferring 0.5 μl 500× stock solution into 125 μl medium; (3) 15 μl of 2× solution is added to cells and incubate for 6 h.
After 6 h treatment, add 10 μl 4×lysis buffer to each well; seal the plate and incubate 30 min at room temperature on a plate shaker; Once the cells are lysed, 16 μL of cell lysate are transferred to a PE 384-well HTRF detection plate; 4 μL of pre-mixed HTRF antibodies are added to each well; Cover the plate with a plate sealer, spin 1000 rpm for 1 min, Incubate overnight at room temperature; Read on BMG PheraStar with HTRF protocol (337 nm-665 nm-620 nm).
The IC50 (DC50) value of a compound can be obtained by fitting the following equation
Y=Bottom+(TOP−Bottom)/(1+((IC50/X)^hillslope))
Wherein, X and Y are known values, and IC50, Hillslope, Top and Bottom are the parameters obtained by fitting with software. Y is the inhibition percentage (calculated from the equation), X is the concentration of the compound; IC50 is the concentration of the compound when the 50% inhibition is reached. The smaller the IC50 value is, the stronger the inhibitory ability of the compound is. Vice versa, the higher the IC50 value is, the weaker the ability the inhibitory ability of the compound is; Hillslope represents the slope of the fitted curve, generally around 1*; Bottom represents the minimum value of the curve obtained by data fitting, which is generally 0%±20%; Top represents the maximum value of the curve obtained by data fitting, which is generally 100%±20%. The experimental data were fitted by calculating and analyzing with Dotmatics data analysis software.

T1 sequence (Q06187 whole entry): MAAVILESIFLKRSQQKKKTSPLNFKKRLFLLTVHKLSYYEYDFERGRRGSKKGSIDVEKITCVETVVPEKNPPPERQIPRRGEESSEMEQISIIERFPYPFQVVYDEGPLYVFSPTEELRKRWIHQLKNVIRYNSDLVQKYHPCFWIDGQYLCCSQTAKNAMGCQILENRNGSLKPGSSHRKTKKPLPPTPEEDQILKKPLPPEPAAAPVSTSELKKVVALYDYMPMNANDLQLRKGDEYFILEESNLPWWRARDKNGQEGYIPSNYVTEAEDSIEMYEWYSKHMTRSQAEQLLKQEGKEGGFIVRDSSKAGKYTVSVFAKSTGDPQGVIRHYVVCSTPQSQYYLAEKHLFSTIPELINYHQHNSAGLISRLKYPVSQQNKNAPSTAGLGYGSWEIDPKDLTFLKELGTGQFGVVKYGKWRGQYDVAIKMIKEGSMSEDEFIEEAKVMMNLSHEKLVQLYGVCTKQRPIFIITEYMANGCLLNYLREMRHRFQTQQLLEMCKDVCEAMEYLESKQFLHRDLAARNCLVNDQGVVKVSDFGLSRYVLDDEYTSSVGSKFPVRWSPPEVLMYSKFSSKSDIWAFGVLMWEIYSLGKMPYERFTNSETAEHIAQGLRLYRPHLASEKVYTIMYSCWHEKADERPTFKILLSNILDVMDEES

**Q.** With `Cc1cc(-c2n[nH]c3ncc(-c4ccc(N5CCN(CCc6ccc([C@H]7CCC(=O)NC7=O)cn6)CC5)cc4)cc23)ccc1[C@@H](C)NC(=O)c1noc(C(C)(C)C)n1` [Example 140, 5-(tert-butyl)-N—((R)-1-(4-(5-(4-(4-(2-(5-((R)-2,6-dioxopiperidin-3-yl)pyridin-2-yl)ethyl)piperazin-1-yl)phenyl)-1H-pyrazolo[3,4-b]pyridin-3-yl)-2-methylphenyl)ethyl)-1,2,4-oxadiazole-3-carboxamide] as the molecule, how does the DC50 read?
**A.** The DC50 was 1.11 nM.

**Q.** `Cc1cc(-c2n[nH]c3ncc(-c4ccc(C5CCN(CCc6ccc(C7CCC(=O)NC7=O)cc6)CC5)cc4)cc23)ccc1CNC(=O)c1noc(C(C)(C)C)n1` (stereo not shown) [Example 3, 5-(tert-butyl)-N-(4-(5-(4-(1-(4-(2,6-dioxopiperidin-3-yl)phenethyl)piperidin-4-yl)phenyl)-1H-pyrazolo[3,4-b]pyridin-3-yl)-2-methylbenzyl)-1,2,4-oxadiazole-3-carboxamide] was tested. Which DC50 did it give?
**A.** The DC50 was 0.714 nM.

**Q.** What about the Dmax of the same molecule?
**A.** Its Dmax is 97.1%.

**Q.** Which DC50 does the source give for `COc1nc(CCN2CCN(c3ccc(-c4cnc5[nH]nc(-c6ccc([C@@H](C)NC(=O)c7nc(C(C)(C)C)no7)c(C)c6)c5c4)cc3)CC2)ccc1C1CCC(=O)NC1=O` (stereo partly drawn) [Example 195, 3-(tert-butyl)-N-((1R)-1-(4-(5-(4-(4-(2-(5-(2,6-dioxopiperidin-3-yl)-6-methoxypyridin-2-yl)ethyl)piperazin-1-yl)phenyl)-1H-pyrazolo[3,4-b]pyridin-3-yl)-2-methylphenyl)ethyl)-1,2,4-oxadiazole-5-carboxamide] here?
**A.** The DC50 was 6.13 nM.

**Q.** How did the DC50 turn out when `Cc1cc(-c2n[nH]c3ncc(-c4ccc(N5CCN(CCc6ccc(C7CCC(=O)NC7=O)cn6)CC5)cc4)cc23)ccc1[C@@H](C)NC(=O)c1noc(C(C)(C)C)n1` (stereo partly drawn) [Example 101, 5-(tert-butyl)-N-((1R)-1-(4-(5-(4-(4-(2-(5-(2,6-dioxopiperidin-3-yl)pyridin-2-yl)ethyl)piperazin-1-yl)phenyl)-1H-pyrazolo[3,4-b]pyridin-3-yl)-2-methylphenyl)ethyl)-1,2,4-oxadiazole-3-carboxamide] was run?
**A.** The DC50 was 0.959 nM.

**Q.** With `Cc1c(CNC(=O)c2noc(C(C)(C)C)n2)ccc(-c2n[nH]c3ncc(-c4ccc(N5CCN(CC6CCN(c7ccc(N8CCC(=O)NC8=O)cc7)CC6)CC5)cc4)cc23)c1F` [Example 99, 5-(tert-butyl)-N-(4-(5-(4-(4-((1-(4-(2,4-dioxotetrahydropyrimidin-1(2H)-yl)phenyl)piperidin-4-yl)methyl)piperazin-1-yl)phenyl)-1H-pyrazolo[3,4-b]pyridin-3-yl)-3-fluoro-2-methylbenzyl)-1,2,4-oxadiazole-3-carboxamide] as the molecule, how does the DC50 read?
**A.** Its DC50 is 17.8 nM.

**Q.** With `Cc1cc(-c2n[nH]c3ncc(-c4ccc(N5CCN(CCc6ccc(C7CCC(=O)NC7=O)c(C)n6)CC5)cc4)cc23)ccc1[C@@H](C)NC(=O)c1noc(C(C)(C)C)n1` (stereo partly drawn) [Example 155, 5-(tert-butyl)-N-((1R)-1-(4-(5-(4-(4-(2-(5-(2,6-dioxopiperidin-3-yl)-6-methylpyridin-2-yl)ethyl)piperazin-1-yl)phenyl)-1H-pyrazolo[3,4-b]pyridin-3-yl)-2-methylphenyl)ethyl)-1,2,4-oxadiazole-3-carboxamide] as the molecule, how does the DC50 read?
**A.** Its DC50 is 2.92 nM.

**Q.** Which DC50 does the source give for `COc1cc(CCN2CCN(c3ccc(-c4cnc5[nH]nc(-c6ccc([C@@H](C)NC(=O)c7noc(C(C)(C)C)n7)c(C)c6)c5c4)cc3)CC2)ccc1C1CCC(=O)NC1=O` (stereo partly drawn) [Example 137, 5-(tert-butyl)-N-((1R)-1-(4-(5-(4-(4-(4-(2,6-dioxopiperidin-3-yl)-3-methoxyphenethyl)piperazin-1-yl)phenyl)-1H-pyrazolo[3,4-b]pyridin-3-yl)-2-methylphenyl)ethyl)-1,2,4-oxadiazole-3-carboxamide] here?
**A.** Its DC50 is 5.23 nM.

**Q.** `Cc1cc(-c2n[nH]c3ncc(-c4ccc(C5CCN(CC6CCN(c7ccc(N8CCC(=O)NC8=O)cc7)CC6)CC5)nc4)cc23)ccc1CNC(=O)c1noc(C(C)(C)C)n1` [Example 63, 5-(tert-butyl)-N-(4-(5-(6-(1-((1-(4-(2,4-dioxotetrahydropyrimidin-1(2H)-yl)phenyl)piperidin-4-yl)methyl)piperidin-4-yl)pyridin-3-yl)-1H-pyrazolo[3,4-b]pyridin-3-yl)-2-methylbenzyl)-1,2,4-oxadiazole-3-carboxamide] was tested. Which DC50 did it give?
**A.** Its DC50 is 4.22 nM.

**Q.** `Cc1cc(-c2n[nH]c3ncc(-c4ccc(N5CCN(CCc6ccc(C7CCC(=O)NC7=O)c(C)n6)CC5)cc4)cc23)ccc1[C@@H](C)NC(=O)c1nc(C(C)(C)C)no1` (stereo partly drawn) [Example 156, 3-(tert-butyl)-N-((1R)-1-(4-(5-(4-(4-(2-(5-(2,6-dioxopiperidin-3-yl)-6-methylpyridin-2-yl)ethyl)piperazin-1-yl)phenyl)-1H-pyrazolo[3,4-b]pyridin-3-yl)-2-methylphenyl)ethyl)-1,2,4-oxadiazole-5-carboxamide] was tested. Which DC50 did it give?
**A.** Its DC50 is 2.14 nM.

**Q.** For `Cc1cc(-c2n[nH]c3ncc(-c4ccc(C5(C)CCN(CC6CCN(c7ccc(N8CCC(=O)NC8=O)cc7)CC6)CC5)cc4)cc23)ccc1[C@@H](C)NC(=O)c1noc(C(C)(C)C)n1` [Example 210, (R)-5-(tert-butyl)-N-(1-(4-(5-(4-(1-((1-(4-(2,4-dioxotetrahydropyrimidin-1(2H)-yl)phenyl)piperidin-4-yl)methyl)-4-methylpiperidin-4-yl)phenyl)-1H-pyrazolo[3,4-b]pyridin-3-yl)-2-methylphenyl)ethyl)-1,2,4-oxadiazole-3-carboxamide], which DC50 is on record?
**A.** The DC50 was 5.98 nM.

**Q.** With `Cc1cc(-c2n[nH]c3ncc(-c4ccc(N5CCN(CC(F)(F)c6ccc(C7CCC(=O)NC7=O)cc6)CC5)cc4)cc23)ccc1[C@@H](C)NC(=O)c1nc(C(C)(C)C)no1` (stereo partly drawn) [Example 188, 3-(tert-butyl)-N-((1R)-1-(4-(5-(4-(4-(2-(4-(2,6-dioxopiperidin-3-yl)phenyl)-2,2-difluoroethyl)piperazin-1-yl)phenyl)-1H-pyrazolo[3,4-b]pyridin-3-yl)-2-methylphenyl)ethyl)-1,2,4-oxadiazole-5-carboxamide] as the molecule, how does the DC50 read?
**A.** The DC50 was 9.91 nM.

**Q.** For `Cc1cc(CCN2CCN(c3ccc(-c4cnc5[nH]nc(-c6ccc([C@@H](C)NC(=O)c7nc(C(C)(C)C)no7)c(C)c6)c5c4)cc3)CC2)ccc1C1CCC(=O)NC1=O` (stereo partly drawn) [Example 87, 3-(tert-butyl)-N-((1R)-1-(4-(5-(4-(4-(4-(2,6-dioxopiperidin-3-yl)-3-methylphenethyl)piperazin-1-yl)phenyl)-1H-pyrazolo[3,4-b]pyridin-3-yl)-2-methylphenyl)ethyl)-1,2,4-oxadiazole-5-carboxamide], which DC50 is on record?
**A.** Its DC50 is 7.21 nM.

**Q.** How did the DC50 turn out when `Cc1cc(-c2n[nH]c3ncc(-c4ccc(N5CCN(CC6CCN(c7ccc(N8CCC(=O)NC8=O)cc7)CC6)CC5)cc4)cc23)ccc1CNC(=O)c1nc(C(C)(C)C)no1` [Example 20, 3-(tert-butyl)-N-(4-(5-(4-(4-((1-(4-(2,4-dioxotetrahydropyrimidin-1(2H)-yl)phenyl)piperidin-4-yl)methyl)piperazin-1-yl)phenyl)-1H-pyrazolo[3,4-b]pyridin-3-yl)-2-methylbenzyl)-1,2,4-oxadiazole-5-carboxamide] was run?
**A.** Its DC50 is 3.95 nM.

**Q.** And the Dmax?
**A.** The Dmax was 96.4%.

**Q.** For `Cc1cc(-c2n[nH]c3ncc(-c4ccc(N5CCN(CCc6ccc(C7CCC(=O)NC7=O)c(C)n6)CC5)cn4)cc23)ccc1[C@@H](C)NC(=O)c1noc(C(C)(C)C)n1` (stereo partly drawn) [Example 163, 5-(tert-butyl)-N-((1R)-1-(4-(5-(5-(4-(2-(5-(2,6-dioxopiperidin-3-yl)-6-methylpyridin-2-yl)ethyl)piperazin-1-yl)pyridin-2-yl)-1H-pyrazolo[3,4-b]pyridin-3-yl)-2-methylphenyl)ethyl)-1,2,4-oxadiazole-3-carboxamide], which DC50 is on record?
**A.** Its DC50 is 2.13 nM.

**Q.** For `Cc1cc(-c2n[nH]c3ncc(-c4ccc(N5CCN(CC6CCN(c7ccc(N8CCC(=O)NC8=O)cc7)CC6)CC5)cc4)cc23)ccc1CNC(=O)c1csc(C(C)(C)C)n1` [Example 93, 2-(tert-butyl)-N-(4-(5-(4-(4-((1-(4-(2,4-dioxotetrahydropyrimidin-1(2H)-yl)phenyl)piperidin-4-yl)methyl)piperazin-1-yl)phenyl)-1H-pyrazolo[3,4-b]pyridin-3-yl)-2-methylbenzyl)thiazole-4-carboxamide], which DC50 is on record?
**A.** The DC50 was 28.8 nM.

**Q.** With `Cc1cc(-c2n[nH]c3ncc(-c4ccc(C5CCN(CC6CCN(c7ccc(N8CCC(=O)NC8=O)c(C)c7)CC6)CC5)nc4)cc23)ccc1CNC(=O)c1nc(C(C)(C)C)no1` [Example 105, 3-(tert-butyl)-N-(4-(5-(6-(1-((1-(4-(2,4-dioxotetrahydropyrimidin-1(2H)-yl)-3-methylphenyl)piperidin-4-yl)methyl)piperidin-4-yl)pyridin-3-yl)-1H-pyrazolo[3,4-b]pyridin-3-yl)-2-methylbenzyl)-1,2,4-oxadiazole-5-carboxamide] as the molecule, how does the DC50 read?
**A.** The DC50 was 3.55 nM.

**Q.** How did the DC50 turn out when `Cc1cc(-c2n[nH]c3ncc(-c4ccc(N5CCN(CCc6ccc([C@@H]7CCC(=O)NC7=O)cc6)CC5)cc4)cc23)ccc1CNC(=O)c1cn(C(C)(C)C)nn1` [Example 151, (S)-1-(tert-butyl)-N-(4-(5-(4-(4-(4-(2,6-dioxopiperidin-3-yl)phenethyl)piperazin-1-yl)phenyl)-1H-pyrazolo[3,4-b]pyridin-3-yl)-2-methylbenzyl)-1H-1,2,3-triazole-4-carboxamide] was run?
**A.** The DC50 was 17.8 nM.
